Laboratory results: patent US9732088B2, “C2-carbocyclic iminothiazine dioxides as BACE inhibitors, compositions, and their use” (Merck Sharp & Dohme Corp., priority 2014, dated 2017)

How the values were obtained:
[1] = molecular target: soluble human BACE-1 catalytic domain (Homo sapiens (Human), UniProt P56817); assay: BACE-1 Ki Assay (BACE-1 HTRF FRET Assay); assay type: biochemical; details: Assay 1; Ki calculated from IC50 by Cheng-Prusoff
Method in brief: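 Recombinant human BACE-1 catalytic domain (3 nM in 10 μl) preincubated with inhibitor 30 min at 30° C, pH 5.0 acetate buffer with 7.5% DMSO, then 200 nM final QSY7-APPswe-Eu substrate for 1.5 h; 620 nm time-resolved fluorescence read. IC50 from nonlinear regression converted to Ki by Cheng-Prusoff using Km 8 μM.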

CSF Aβ40 = assay: Aβ Reduction In Vivo (rat CSF Aβ40); details: male CD IGS rats, 10 mg/kg oral gavage, CSF at 3 hours, change vs vehicle
Description: Assay 5: Aβ Reduction In Vivo
The in vivo efficacy and/or potency of BACE inhibitors (test compounds) can be evaluated using a variety of animal models, including mouse, rat, dog, and monkey, and these animals can be wild type, transgenic, or gene knockout animals.
Generally, animals are administered (by oral gavage, intravenous injection, or by other suitable route) a test compound in doses ranging from, for example, 0.1 mg/kg (mg of compound per kg of animal body weight) to 100 mg/kg formulated in vehicles, such as cyclodextrin, phosphate buffer, hydroxypropyl methylcellulose or other suitable vehicles. One to twenty-four hours following the administration of compound, animals are sacrificed, and tissues (for example, brain, cerebrospinal fluid (CSF), and/or plasma) are collected for analysis of Aβ levels and/or test compound concentrations (Dovey et al., 2001, Journal of Neurochemistry, 76, 173-181). Tissue samples are processed appropriately and then analyzed for the presence of Aβ by specific sandwich ELISA assays based on electrochemiluminescence (ECL) technology.
For example, in the following assay for which data are reported below, male CD IGS rats (body weight approximately 120 g, Charles River Laboratories, Kingston, N.Y.) were used to assess lowering of CSF levels of Aβ1-40 (Aβ40) in the presence of compounds of the invention. At time 0, animals were administered by oral gavage a test compound at a dose of 10 mg/kg in 20% hydroxypropyl-β-cyclodextrin (dosing volume 5 mL/kg). A separate group of animals received 20% hydroxypropyl-β-cyclodextrin alone to serve as the vehicle control group. Three hours after administration, the rats were euthanized with excess CO2. Immediately following euthanasia, CSF was collected from the cisterna magna and quickly frozen on dry ice. Samples were stored at −80° C. until quantification of Aβ40 levels.
The measurement of endogenous rat Aβ40 in CSF relied on the 585 antibody (Ab585, BioSource, NONO585), which specifically recognizes the N-terminal sequence of rodent Aβ40, and on the monoclonal antibody, G2-10, which specifically recognizes the free C-terminus of Aβ40. Ab585 was labeled with biotin (b-Ab585) by first dialyzing the antibody sample extensively versus PBS (pH 7.8) to remove impurities, followed by dilution to between 1 and 2 mg/mL protein concentration. EZ-Link Sulfo-NHS-LC-Biotin (Pierce) was dissolved in PBS (pH 7.8) at a concentration of 1 mg/mL immediately prior to use. Ab585 was labeled with EZ-Link Sulfo-NHS-LC-biotin using a 10:1 biotin:antibody ratio by incubation at room temperature for 1 hour. The labeling reaction was quenched by addition of 1.0 M glycine to a final concentration of 0.1 M followed by 10 minute incubation at room temperature. Glycine was removed by extensive dialysis versus PBS.
For rat CSF Aβ40 determinations, a calibration curve of various concentrations of synthetic rodent Aβ40 was assayed in parallel with rat CSF samples in duplicate using an avidin-coated 96-well MSD plate (Mesoscale Diagnostics). Either 50 μL of rodent Aβ40 standards diluted in PBS (pH 7.4) supplemented with 1% BSA and 1% Tween-20 (standard diluent buffer) or 40 μL of standard diluent buffer plus 10 μL rat CSF were added to each 96 well avidin-coated plate. To each well was added 50 μL of 0.1 M HEPES (pH 7.5), 2% BSA, 2% Tween-20, 0.3 M NaCl (2×Aβ40 buffer) supplemented with the b-Ab585 capture and ruthenylated-G2-10 detection antibodies diluted to 1 μg/mL and 0.5 μg/mL, respectively. Plates were shaken for 1 min on a microplate shaker, covered to protect from light and incubated overnight (˜16 h) at 4° C. For detection, plates were first washed twice with 100 μL of 1×CSF Aβ40 buffer followed by addition of 160 μL of 1×MSD read buffer-T (Mesoscale Diagnostics) diluted in 1×CSF Aβ40 buffer. Plates were read on a MSD Sector Imager 2400 model (Mesoscale Diagnosotics). […]

Sequence of soluble human BACE-1 catalytic domain (P56817 75-416): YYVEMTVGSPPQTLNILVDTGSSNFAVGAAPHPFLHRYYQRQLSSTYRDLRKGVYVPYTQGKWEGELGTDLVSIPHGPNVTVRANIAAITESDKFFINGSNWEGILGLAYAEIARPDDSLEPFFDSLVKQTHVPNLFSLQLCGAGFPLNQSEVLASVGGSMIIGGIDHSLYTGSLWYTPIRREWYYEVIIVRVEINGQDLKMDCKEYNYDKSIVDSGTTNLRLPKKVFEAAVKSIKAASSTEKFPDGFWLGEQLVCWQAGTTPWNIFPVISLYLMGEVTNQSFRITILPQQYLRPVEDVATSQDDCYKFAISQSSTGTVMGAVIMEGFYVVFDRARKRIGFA

Row | Compound | Ki [1] | Aβ reduction in vivo in rat (Δ% CSF Aβ40 @ 10 mpk) (CSF Aβ40)
1 | COc1cnc2c(Nc3ccc(F)c([C@]4(C)CS(=O)(=O)C(C)(C)C(N)=N4)c3)nccc2n1 [Ex 47 of WO2014059185, reference compound] | 3.3 nM | −88%
2 | C[C@@]1(c2nc(Nc3nccc4cc(C#N)cnc34)ncc2F)CS(=O)(=O)[C@@](C)(C2CC2)C(N)=N1 [Example 5, 8-({4-[(3R,6S)-6-cyclopropyl-5-imino-3,6-dimethyl-1,1-dioxidothiomorpholin-3-yl]-5-fluoropyrimidin-2-yl}amino)-1,7-naphthyridine-3-carbonitrile] | 8.7 nM | 
3 | COc1cnc2c(Nc3cc([C@]4(C)CS(=O)(=O)[C@@](C)(C5CC5)C(N)=N4)c(F)cn3)nccc2c1 [Example 6, N-{4-[(3R,6S)-6-cyclopropyl-5-imino-3,6-dimethyl-1,1-dioxidothiomorpholin-3-yl]-5-fluoropyridin-2-yl}-3-methoxy-1,7-naphthyridin-8-amine] | 2.6 nM | −92%
4 | COc1cnc2c(Nc3ccc(F)c([C@]4(C)CS(=O)(=O)[C@@](C)(C5CC5)C(N)=N4)c3)nccc2c1 [Example 14, N-{3-[(3R,6S)-6-cyclopropyl-5-imino-3,6-dimethyl-1,1-dioxidothiomorpholin-3-yl]-4-fluorophenyl}-3-methoxy-1,7-naphthyridin-8-amine] | 9.3 nM | 
5 | C[C@@]1(c2cc(Nc3ncnc4cc(C#N)cnc34)ccc2F)CS(=O)(=O)[C@@](C)(C2CC2)C(N)=N1 [Example 16, 4-({3-[(3R,6S)-6-cyclopropyl-5-imino-3,6-dimethyl-1,1-dioxidothiomorpholin-3-yl]-4-fluorophenyl}amino)pyrido[3,2-d]pyrimidine-7-carbonitrile] | 2.2 nM | −85%
6 | C[C@@]1(c2cc(Nc3nccc4cc(C#N)cnc34)ccc2F)CS(=O)(=O)[C@@](C)(C2CC2)C(N)=N1 [Example 18, 8-({3-[(3R,6S)-6-cyclopropyl-5-imino-3,6-dimethyl-1,1-dioxidothiomorpholin-3-yl]-4-fluorophenyl}amino)-1,7-naphthyridine-3-carbonitrile] | 1.6 nM | −87%
7 | COc1cnc2c(Nc3ccc(F)c([C@]4(C)CS(=O)(=O)[C@@](C)(C5CC5)C(N)=N4)c3)ncnc2n1 [Example 22, (2S,5R)-2-cyclopropyl-5-(2-fluoro-5-((7-methoxypteridin-4-yl)amino)phenyl)-3-imino-2,5-dimethylthiomorpholine 1,1-dioxide] | 14 nM | −70%
8 | CC1(C)C(=N)N[C@](C)(c2cc(Nc3noc4cc(F)cnc34)ccc2F)CS1(=O)=O [WO′426 Ex. 30b, reference compound] | 19.2 nM | +6%
